From patent US10160762B2, “6-alkyl dihydropyrazolopyrimidinone compounds as PDE2 inhibitors” (Merck Sharp & Dohme Corp., priority 2015, dated 2018)
Read-outs that look alike come from different tables or passages of the source.

Molecular target: T1, Rhesus PDE2A3 (Macaca mulatta, UniProt B3VTJ2)
T1 construct: made in house; host or cells: AD293 cells, transient transfection; supernatant of sonicated lysate
T1 sequence (B3VTJ2 1-941): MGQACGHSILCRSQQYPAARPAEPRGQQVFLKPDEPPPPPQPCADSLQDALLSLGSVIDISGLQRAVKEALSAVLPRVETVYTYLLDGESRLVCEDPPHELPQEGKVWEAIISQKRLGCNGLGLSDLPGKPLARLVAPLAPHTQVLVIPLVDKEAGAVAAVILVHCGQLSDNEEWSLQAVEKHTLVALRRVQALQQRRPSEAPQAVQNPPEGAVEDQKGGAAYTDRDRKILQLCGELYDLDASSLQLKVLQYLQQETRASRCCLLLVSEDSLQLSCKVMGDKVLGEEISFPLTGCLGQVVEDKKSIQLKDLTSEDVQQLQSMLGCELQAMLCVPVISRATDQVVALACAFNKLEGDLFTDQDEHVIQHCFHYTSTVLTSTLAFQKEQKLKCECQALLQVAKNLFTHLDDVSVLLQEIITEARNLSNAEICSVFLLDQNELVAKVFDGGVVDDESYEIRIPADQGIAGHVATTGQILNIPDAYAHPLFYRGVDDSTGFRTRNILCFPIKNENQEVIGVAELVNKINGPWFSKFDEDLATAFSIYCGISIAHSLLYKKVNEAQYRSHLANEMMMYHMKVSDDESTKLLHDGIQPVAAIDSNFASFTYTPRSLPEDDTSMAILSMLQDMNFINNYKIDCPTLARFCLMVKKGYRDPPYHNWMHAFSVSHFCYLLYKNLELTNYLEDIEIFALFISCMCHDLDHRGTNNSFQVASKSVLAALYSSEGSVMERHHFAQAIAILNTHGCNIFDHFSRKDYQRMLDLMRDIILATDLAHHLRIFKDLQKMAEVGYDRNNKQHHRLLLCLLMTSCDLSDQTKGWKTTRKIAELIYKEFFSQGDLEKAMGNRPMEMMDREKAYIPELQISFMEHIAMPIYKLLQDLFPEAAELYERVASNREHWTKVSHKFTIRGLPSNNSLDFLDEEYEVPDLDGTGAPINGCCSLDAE
Assay: PDE2 fluorescence polarization (IMAP FP) inhibition assay, rhesus PDE2A3
Type: biochemical, rhesus macaque
Outline: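 Enzyme source was the lysate supernatant of AD293 cells transiently expressing rhesus PDE2A3, diluted to give 20% conversion of 50 nM FAM-cAMP, with 1 µM cGMP as activator. Buffer was 10 mM Tris pH 7.2, 10 mM MgCl2, 1 mM DTT.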

[1] = Lab A, read-out: Rhesus PDE2 Ki (nM) Lab A
[2] = Lab B, read-out: Rhesus PDE2 Ki (nM) Lab B

Row | SMILES | Ki [1] [nM] | Ki [2] [nM]
1 | COc1cccc(Cc2nc3c(c(C)nn3C(C)c3ccc(C(F)(F)F)cc3)c(=O)[nH]2)c1 (stereo not drawn) [Example 45, 6-(3-Methoxybenzyl)-3-methyl-1-{1-[4-(trifluoromethyl)phenyl]ethyl}-1,5-dihydro-4H-pyrazolo[3,4-d]pyrimidin-4-one] | 26 | 
2 | COc1ccc(Cc2nc3c(c(C)nn3C(C)c3ccc(C(F)(F)F)cc3)c(=O)[nH]2)cc1 (stereo not drawn) [Example 46, 6-(4-Methoxybenzyl)-3-methyl-1-{1-[4-(trifluoromethyl)phenyl]ethyl}-1,5-dihydro-4H-pyrazolo[3,4-d]pyrimidin-4-one] | 7.1 | 
3 | COc1cccc(-c2nc3c(c(C)nn3C(C)c3ccc(C(F)(F)F)cc3)c(=O)[nH]2)c1 (stereo not drawn) [Example 47, 6-(3-Methoxyphenyl)-3-methyl-1-{1-[4-(trifluoromethyl)phenyl]ethyl}-1,5-dihydro-4H-pyrazolo[3,4-d]pyrimidin-4-one] | 18 | 
4 | COCc1nc2c(c(C)nn2C(C)c2ccc(C(F)(F)F)cc2)c(=O)[nH]1 (stereo not drawn) [Example 48, 6-(Methoxymethyl)-3-methyl-1-{1-[4-(trifluoromethyl)phenyl]ethyl}-1,5-dihydro-4H-pyrazolo[3,4-d]pyrimidin-4-one] | 36 | 
5 | Cc1nn(C(C)c2ccc(C(F)(F)F)cc2)c2nc(-c3ccco3)[nH]c(=O)c12 (stereo not drawn) [Example 49, 6-Furan-2-yl-3-methyl-1-{1-[4-(trifluoromethyl)phenyl]ethyl}-1,5-dihydro-4H-pyrazolo[3,4-d]pyrimidin-4-one] | 9 | 
6 | Cc1nn(C(C)c2ccc(C(F)(F)F)cc2)c2nc(-c3cnc4ccccc4n3)[nH]c(=O)c12 (stereo not drawn) [Example 50, 3-Methyl-6-quinoxalin-2-yl-1-{1-[4-(trifluoromethyl)phenyl]ethyl}-1,5-dihydro-4H-pyrazolo[3,4-d]pyrimidin-4-one] | 62 | 
7 | Cc1nn(C(C)c2ccc(C(F)(F)F)cc2)c2nc(CF)[nH]c(=O)c12 (stereo not drawn) [Example 51, 6-(Fluoromethyl)-3-methyl-1-{1-[4-(trifluoromethyl)phenyl]ethyl}-1,5-dihydro-4H-pyrazolo[3,4-d]pyrimidin-4-one] | 79 | 
8 | Cc1nn(C(C)c2ccc(C(F)(F)F)cc2)c2nc(-c3ccccn3)[nH]c(=O)c12 (stereo not drawn) [Example 52, 3-Methyl-6-pyridin-2-yl-1-{1-[4-(trifluoromethyl)phenyl]ethyl}-1,5-dihydro-4H-pyrazolo[3,4-d]pyrimidin-4-one] | 28 | 
9 | Cc1nn(C(C)c2ccc(C(F)(F)F)cc2)c2nc(-c3cnn(C)c3)[nH]c(=O)c12 (stereo not drawn) [Example 53, 3-Methyl-6-(1-methyl-1H-pyrazol-4-yl)-1-{1-[4-(trifluoromethyl)phenyl]ethyl}-1,5-dihydro-4H-pyrazolo[3,4-d]pyrimidin-4-one] | 29 | 
10 | Cc1nc(-c2nc3c(c(C)nn3C(C)c3ccc(C(F)(F)F)cc3)c(=O)[nH]2)c(C)o1 (stereo not drawn) [Example 54, 6-(2,5-Dimethyl-1,3-oxazol-4-yl)-3-methyl-1-{1-[4-(trifluoromethyl)phenyl]ethyl}-1,5-dihydro-4H-pyrazolo[3,4-d]pyrimidin-4-one] | 32 | 
11 | Cc1nc2c(c(CO)nn2[C@@H](C)c2ccc(C(C)(C)C)cc2)c(=O)[nH]1 [Example 157, (S)-1-(1-(4-tert-Butylphenyl)ethyl)-3-(hydroxymethyl)-6-methyl-1H-pyrazolo[3,4-d]pyrimidin-4(5H)-one] |  | 0.96
12 | Cc1nc2c(c(CO)nn2[C@@H](C)c2ccc(OC(F)(F)F)cc2)c(=O)[nH]1 [Example 158, (S)-3-(Hydroxymethyl)-6-methyl-1-(1-(4-(trifluoromethoxy)phenyl)ethyl)-1H-pyrazolo[3,4-d]pyrimidin-4(5H)-one] |  | 4.5
13 | Cc1nc2c(c(CO)nn2[C@H](c2ccc(C(C)(C)C)cc2)C(C)C)c(=O)[nH]1 [Example 159, (S)-1-(1-(4-tert-Butylphenyl)-2-methylpropyl)-3-(hydroxymethyl)-6-methyl-1H-pyrazolo[3,4-d]pyrimidin-4(5H)-one] |  | 2.8
14 | Cc1nc2c(c(CO)nn2[C@@H](c2ccc(C(C)(C)C)cc2)C(C)C)c(=O)[nH]1 [Example 160, (R)-1-(1-(4-tert-Butylphenyl)-2-methylpropyl)-3-(hydroxymethyl)-6-methyl-1H-pyrazolo[3,4-d]pyrimidin-4(5H)-one] |  | 0.3
15 | Cc1nc2c(c(C(F)F)nn2C(C)c2ccc(C(F)(F)F)cc2)c(=O)[nH]1 (stereo not drawn) [Example 166, 3-(Difluoromethyl)-6-methyl-1-{1-[4-(trifluoromethyl)phenyl]ethyl}-1,5-dihydro-4H-pyrazolo[3,4-d]pyrimidin-4-one] | 6.7 | 7.9
16 | Cc1nc2c(c(C(F)F)nn2C(c2ccc(OC(F)(F)F)c(F)c2)C2CC2)c(=O)[nH]1 (stereo not drawn) [Example 193, 1-(Cyclopropyl(3-fluoro-4-(trifluoromethoxy)phenyl)methyl)-3-(difluoromethyl)-6-methyl-1H-pyrazolo[3,4-d]pyrimidin-4(5H)-one] |  | 1.2
17 | COc1ccc(C(=O)c2nc3c(c(C(F)F)nn3C(C)c3ccc(C(F)(F)F)cc3)c(=O)[nH]2)cc1OC (stereo not drawn) [Example 198, 3-(Difluoromethyl)-6-(3,4-dimethoxybenzoyl)-1-(1-(4-(trifluoromethyl)phenyl)ethyl)-1H-pyrazolo[3,4-d]pyrimidin-4(5H)-one] |  | 17
18 | Cc1nc2c(c(CF)nn2C(c2ccc(C(F)(F)F)cc2)C(F)(F)F)c(=O)[nH]1 (stereo not drawn) [Example 201, 3-(Fluoromethyl)-6-methyl-1-(2,2,2-trifluoro-1-(4-(trifluoromethyl)phenyl)-ethyl)-1H-pyrazolo[3,4-d]pyrimidin-4(5H)-one] | 1.4 | 4.1
19 | Cc1nc2c(c(CF)nn2C2(c3ccc(C(F)(F)F)cc3)CCC2)c(=O)[nH]1 [Example 202, 3-(Fluoromethyl)-6-methyl-1-(1-(4-(trifluoromethyl)phenyl)cyclobutyl)-1H-pyrazolo[3,4-d]pyrimidin-4(5H)-one] |  | 3.1
20 | Cc1ccc(C(C)n2nc(CF)c3c(=O)[nH]c(C)nc32)cc1 (stereo not drawn) [Example 203, 3-(Fluoromethyl)-6-methyl-1-(1-p-tolylethyl)-1H-pyrazolo[3,4-d]pyrimidin-4(5H)-one] | ~12 | 12
21 | Cc1nc2c(c(CF)nn2C(C)c2ccc(C(F)(F)F)cc2)c(=O)[nH]1 (stereo not drawn) [Example 204, 3-(Fluoromethyl)-6-methyl-1-{1-[4-(trifluoromethyl)phenyl]ethyl}-1,5-dihydro-4H-pyrazolo[3,4-d]pyrimidin-4-one] | 4 | 
22 | COCc1nc2c(c(CF)nn2C(C)c2ccc(C(F)(F)F)cc2)c(=O)[nH]1 (stereo not drawn) [Example 205, 3-(Fluoromethyl)-6-(methoxymethyl)-1-{1-[4-(trifluoromethyl)phenyl]ethyl}-1,5-dihydro-4H-pyrazolo[3,4-d]pyrimidin-4-one] |  | 3.2
23 | Cc1nc2c(c(CF)nn2C(C)c2ccc(C(F)(F)F)c(F)c2)c(=O)[nH]1 (stereo not drawn) [Example 230, 1-(1-(3-Fluoro-4-(trifluoromethyl)phenyl)ethyl)-3-(fluoromethyl)-6-methyl-1H-pyrazolo[3,4-d]pyrimidin-4(5H)-one] | 2.3 | 3.4
24 | Cc1nc2c(c(CF)nn2C(c2ccc(C(F)(F)F)cc2)C2CC2)c(=O)[nH]1 (stereo not drawn) [Example 231, 1-(cyclopropyl(4-(trifluoromethyl)phenyl)methyl)-3-(fluoromethyl)-6-methyl-1H-pyrazolo[3,4-d]pyrimidin-4(5H)-one] | 0.87 | 1.2
25 | Cc1nc2c(c(CCl)nn2C(c2ccc(C(F)(F)F)cc2)C2CC2)c(=O)[nH]1 (stereo not drawn) [Example 232, 3-(chloromethyl)-1-(cyclopropyl(4-(trifluoromethyl)phenyl)methyl)-6-methyl-1H-pyrazolo[3,4-d]pyrimidin-4(5H)-one] | 0.47 | 0.85
26 | Cc1nc2c(c(C(C)(C)O)nn2C(C)c2ccc(C(F)(F)F)cc2)c(=O)[nH]1 (stereo not drawn) [Example 326, 3-(1-Hydroxy-1-methylethyl)-6-methyl-1-{1-[4-(trifluoromethyl)phenyl]ethyl}-1,5-dihydro-4H-pyrazolo[3,4-d]pyrimidin-4-one] | 134 | 
27 | Cc1nc2c(c(C(O)C(F)(F)F)nn2C(C)c2ccc(C(F)(F)F)cc2)c(=O)[nH]1 (stereo not drawn) [Example 327, 6-Methyl-3-(2,2,2-trifluoro-1-hydroxyethyl)-1-{1-[4-(trifluoromethyl)phenyl]ethyl}-1,5-dihydro-4H-pyrazolo[3,4-d]pyrimidin-4-one] | 93 | 
